From US20060293317A1, “Use of non-steroidal progesterone receptor modulators” (priority 2005, published 2006)

Target: T1, PR-B progesterone receptor (Homo sapiens, UniProt P06401)
T1 sequence (P06401 1-933): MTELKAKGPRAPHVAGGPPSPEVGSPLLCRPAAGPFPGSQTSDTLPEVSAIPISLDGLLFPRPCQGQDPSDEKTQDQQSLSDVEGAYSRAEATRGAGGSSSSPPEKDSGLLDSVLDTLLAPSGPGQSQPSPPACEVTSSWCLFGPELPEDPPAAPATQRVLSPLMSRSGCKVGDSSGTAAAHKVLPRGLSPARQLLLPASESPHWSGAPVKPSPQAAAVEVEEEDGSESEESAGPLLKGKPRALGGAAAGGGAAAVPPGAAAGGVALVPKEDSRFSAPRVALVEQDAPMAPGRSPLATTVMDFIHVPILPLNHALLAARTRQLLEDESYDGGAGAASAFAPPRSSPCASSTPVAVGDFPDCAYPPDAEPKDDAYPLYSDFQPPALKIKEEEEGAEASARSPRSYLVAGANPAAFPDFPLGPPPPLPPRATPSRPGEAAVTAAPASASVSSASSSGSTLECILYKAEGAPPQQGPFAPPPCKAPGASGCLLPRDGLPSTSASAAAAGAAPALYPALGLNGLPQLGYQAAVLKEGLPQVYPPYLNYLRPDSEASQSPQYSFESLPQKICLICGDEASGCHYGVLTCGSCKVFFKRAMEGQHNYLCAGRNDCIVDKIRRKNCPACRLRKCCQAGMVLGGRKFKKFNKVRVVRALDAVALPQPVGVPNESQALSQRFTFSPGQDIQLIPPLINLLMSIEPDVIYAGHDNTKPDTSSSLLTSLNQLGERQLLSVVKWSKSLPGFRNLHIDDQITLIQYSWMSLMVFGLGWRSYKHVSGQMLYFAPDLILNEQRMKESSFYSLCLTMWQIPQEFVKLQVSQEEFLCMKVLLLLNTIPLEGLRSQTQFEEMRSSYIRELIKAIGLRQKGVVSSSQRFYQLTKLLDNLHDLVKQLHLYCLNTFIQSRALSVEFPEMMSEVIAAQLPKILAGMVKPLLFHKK
Assay: Antagonism at the PR-B progesterone receptor (transactivation assay)
Format: cell-based
Method: Antagonism at the PR-B Progesterone Receptor
The transactivation assay is carried out as described in WO 02/054064.

Antagonistic activity Efficacy (transactivation assay as in WO 02/054064): 100%
IC50 (transactivation assay as in WO 02/054064, read-out: Antagonistic activity IC50): 0.3 nM
Structure (SMILES): Cc1noc(=O)c2ccc(NC(=O)C(O)(Cc3ccccc3)CC(C)(C)c3ccccc3)cc12 (centres unmarked) [compound 88]
